Laboratory results published in ChEMBL document CHEMBL1201862, “PubChem BioAssay data set” (2004).
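The compound was tested at five concentrations on cells cultured in 96-well plates, with a 48-hour exposure period. The concentration for 50% growth inhibition is given as GI50.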 Active and inactive are the calls of the source. Rule as the data show it: active = GI50 up to about 1.1 µM and inactive = higher.

Tests used:
Test in all cases: DTP human tumour cell line panel, 48 h
786-0 = system: 786-0
A498 = system: A498
ACHN = system: ACHN
BT-549 = system: BT-549
CAKI-1 = system: CAKI-1
COLO 205 = system: COLO 205
DU-145 = system: DU-145
EKVX = system: EKVX
HCC 2998 = system: HCC 2998
HCT-116 = system: HCT-116
HCT-15 = system: HCT-15
HL-60 = system: HL-60
HOP-62 = system: HOP-62
HT-29 = system: HT-29
Hs-578T = system: Hs-578T
IGROV-1 = system: IGROV-1
K562 = system: K562
KM12 = system: KM12
LOX IMVI = system: LOX IMVI
MCF7 = system: MCF7
MDA-MB-231 = system: MDA-MB-231
MDA-MB-435 = system: MDA-MB-435
MDA-N = system: MDA-N
MOLT-4 = system: MOLT-4
Malme-3M = system: Malme-3M
NCI-H226 = system: NCI-H226
NCI-H23 = system: NCI-H23
NCI-H460 = system: NCI-H460
NCI-H522 = system: NCI-H522
NCI/ADR-RES = system: NCI/ADR-RES
OVCAR-3 = system: OVCAR-3
OVCAR-4 = system: OVCAR-4
OVCAR-5 = system: OVCAR-5
OVCAR-8 = system: OVCAR-8
PC-3 = system: PC-3
RPMI-8226 = system: RPMI-8226
RXF 393 = system: RXF 393
SF-268 = system: SF-268
SF-295 = system: SF-295
SK-MEL-28 = system: SK-MEL-28
SK-MEL-2 = system: SK-MEL-2
SK-MEL-5 = system: SK-MEL-5
SN12C = system: SN12C
SNB-19 = system: SNB-19
SNB-75 = system: SNB-75
SR = system: SR
SW-620 = system: SW-620
T47D = system: T47D
TK-10 = system: TK-10
U-251 = system: U-251
UACC-257 = system: UACC-257
UACC-62 = system: UACC-62
UO-31 = system: UO-31
A549 = system: A549
CCRF-CEM = system: CCRF-CEM
HOP-92 = system: HOP-92
M14 = system: M14
SF-539 = system: SF-539
SK-OV-3 = system: SK-OV-3

**Q.** Which GI50 (786-0) does the source give for `CCO[C@@H]1CCC([S+]([O-])c2ccc(C)cc2)=CO1` (stereo not given in full) here?
**A.** > 100 µM (inactive)

**Q.** And the GI50 (A498)?
**A.** > 100 µM (inactive)

**Q.** What about the GI50 (ACHN) of the same molecule?
**A.** > 100 µM (inactive)

**Q.** What about the GI50 (BT-549) of the same molecule?
**A.** > 100 µM (inactive)

**Q.** And the GI50 (CAKI-1)?
**A.** > 100 µM (inactive)

**Q.** And the GI50 (COLO 205)?
**A.** > 100 µM (inactive)

**Q.** What about the GI50 (DU-145) of the same molecule?
**A.** > 100 µM (inactive)

**Q.** What about the GI50 (EKVX) of the same molecule?
**A.** > 100 µM (inactive)

**Q.** And the GI50 (HCC 2998)?
**A.** > 100 µM (inactive)

**Q.** What about the GI50 (HCT-116) of the same molecule?
**A.** > 100 µM (inactive)

**Q.** And the GI50 (HCT-15)?
**A.** > 100 µM

**Q.** And the GI50 (HL-60)?
**A.** 69.7 µM (inactive)

**Q.** And the GI50 (HOP-62)?
**A.** > 100 µM (inactive)

**Q.** What about the GI50 (HT-29) of the same molecule?
**A.** > 100 µM (inactive)

**Q.** What about the GI50 (Hs-578T) of the same molecule?
**A.** > 100 µM (inactive)

**Q.** And the GI50 (IGROV-1)?
**A.** > 100 µM (inactive)

**Q.** And the GI50 (K562)?
**A.** > 100 µM (inactive)

**Q.** And the GI50 (KM12)?
**A.** 34.2 µM (inactive)

**Q.** What about the GI50 (LOX IMVI) of the same molecule?
**A.** > 100 µM (inactive)

**Q.** And the GI50 (MCF7)?
**A.** > 100 µM (inactive)

**Q.** And the GI50 (MDA-MB-231)?
**A.** > 100 µM (inactive)

**Q.** And the GI50 (MDA-MB-435)?
**A.** > 100 µM (inactive)

**Q.** And the GI50 (MDA-N)?
**A.** > 100 µM (inactive)

**Q.** And the GI50 (MOLT-4)?
**A.** 52.1 µM (inactive)

**Q.** What about the GI50 (Malme-3M) of the same molecule?
**A.** > 100 µM (inactive)

**Q.** And the GI50 (NCI-H226)?
**A.** > 100 µM (inactive)

**Q.** And the GI50 (NCI-H23)?
**A.** > 100 µM (inactive)

**Q.** What about the GI50 (NCI-H460) of the same molecule?
**A.** > 100 µM (inactive)

**Q.** And the GI50 (NCI-H522)?
**A.** > 100 µM (inactive)

**Q.** What about the GI50 (NCI/ADR-RES) of the same molecule?
**A.** > 100 µM (inactive)

**Q.** What about the GI50 (OVCAR-3) of the same molecule?
**A.** > 100 µM (inactive)

**Q.** And the GI50 (OVCAR-4)?
**A.** > 100 µM (inactive)

**Q.** What about the GI50 (OVCAR-5) of the same molecule?
**A.** > 100 µM (inactive)

**Q.** And the GI50 (OVCAR-8)?
**A.** > 100 µM (inactive)

**Q.** And the GI50 (PC-3)?
**A.** > 100 µM (inactive)

**Q.** What about the GI50 (RPMI-8226) of the same molecule?
**A.** > 100 µM (inactive)

**Q.** What about the GI50 (RXF 393) of the same molecule?
**A.** > 100 µM (inactive)

**Q.** And the GI50 (SF-268)?
**A.** > 100 µM (inactive)

**Q.** What about the GI50 (SF-295) of the same molecule?
**A.** > 100 µM (inactive)

**Q.** What about the GI50 (SK-MEL-28) of the same molecule?
**A.** > 100 µM (inactive)

**Q.** And the GI50 (SK-MEL-2)?
**A.** > 100 µM (inactive)

**Q.** What about the GI50 (SK-MEL-5) of the same molecule?
**A.** > 100 µM (inactive)

**Q.** And the GI50 (SN12C)?
**A.** > 100 µM (inactive)

**Q.** What about the GI50 (SNB-19) of the same molecule?
**A.** > 100 µM (inactive)

**Q.** What about the GI50 (SNB-75) of the same molecule?
**A.** > 100 µM (inactive)

**Q.** And the GI50 (SR)?
**A.** 60.7 µM (inactive)

**Q.** And the GI50 (SW-620)?
**A.** > 100 µM (inactive)

**Q.** And the GI50 (T47D)?
**A.** > 100 µM (inactive)

**Q.** And the GI50 (TK-10)?
**A.** > 100 µM (inactive)

**Q.** And the GI50 (U-251)?
**A.** > 100 µM (inactive)

**Q.** And the GI50 (UACC-257)?
**A.** > 100 µM (inactive)

**Q.** And the GI50 (UACC-62)?
**A.** > 100 µM (inactive)

**Q.** And the GI50 (UO-31)?
**A.** > 100 µM (inactive)

**Q.** How did the GI50 (786-0) turn out when `Cc1ccc(/N=C2\OP(=O)(Nc3ccc(C)cc3)Oc3ccccc32)cc1` (stereo not given) was run?
**A.** > 100 µM (inactive)

**Q.** What about the GI50 (A498) of the same molecule?
**A.** > 100 µM (inactive)

**Q.** And the GI50 (A549)?
**A.** > 100 µM (inactive)

**Q.** What about the GI50 (ACHN) of the same molecule?
**A.** > 100 µM (inactive)

**Q.** And the GI50 (BT-549)?
**A.** > 100 µM (inactive)

**Q.** What about the GI50 (CAKI-1) of the same molecule?
**A.** > 100 µM (inactive)

**Q.** What about the GI50 (CCRF-CEM) of the same molecule?
**A.** > 100 µM (inactive)

**Q.** And the GI50 (COLO 205)?
**A.** > 100 µM (inactive)

**Q.** What about the GI50 (DU-145) of the same molecule?
**A.** > 100 µM (inactive)

**Q.** What about the GI50 (EKVX) of the same molecule?
**A.** > 100 µM (inactive)

**Q.** And the GI50 (HCC 2998)?
**A.** > 100 µM (inactive)

**Q.** And the GI50 (HCT-116)?
**A.** 87.9 µM (inactive)

**Q.** And the GI50 (HCT-15)?
**A.** > 100 µM

**Q.** And the GI50 (HL-60)?
**A.** > 100 µM (inactive)

**Q.** And the GI50 (HOP-62)?
**A.** > 100 µM (inactive)

**Q.** What about the GI50 (HOP-92) of the same molecule?
**A.** 30 µM (inactive)

**Q.** And the GI50 (HT-29)?
**A.** > 100 µM (inactive)

**Q.** And the GI50 (Hs-578T)?
**A.** > 100 µM (inactive)

**Q.** What about the GI50 (IGROV-1) of the same molecule?
**A.** > 100 µM (inactive)

**Q.** And the GI50 (K562)?
**A.** 50.6 µM (inactive)

**Q.** What about the GI50 (KM12) of the same molecule?
**A.** > 100 µM (inactive)

**Q.** And the GI50 (LOX IMVI)?
**A.** > 100 µM (inactive)

**Q.** What about the GI50 (M14) of the same molecule?
**A.** 29.3 µM (inactive)

**Q.** And the GI50 (MCF7)?
**A.** 90.6 µM (inactive)

**Q.** What about the GI50 (MDA-MB-231) of the same molecule?
**A.** > 100 µM (inactive)

**Q.** What about the GI50 (MDA-MB-435) of the same molecule?
**A.** > 100 µM (inactive)

**Q.** What about the GI50 (MDA-N) of the same molecule?
**A.** > 100 µM (inactive)

**Q.** And the GI50 (MOLT-4)?
**A.** > 100 µM (inactive)

**Q.** And the GI50 (Malme-3M)?
**A.** > 100 µM (inactive)

**Q.** What about the GI50 (NCI-H226) of the same molecule?
**A.** > 100 µM (inactive)

**Q.** And the GI50 (NCI-H23)?
**A.** > 100 µM (inactive)

**Q.** And the GI50 (NCI-H460)?
**A.** > 100 µM (inactive)

**Q.** And the GI50 (NCI/ADR-RES)?
**A.** > 100 µM (inactive)

**Q.** What about the GI50 (OVCAR-3) of the same molecule?
**A.** > 100 µM (inactive)

**Q.** What about the GI50 (OVCAR-4) of the same molecule?
**A.** > 100 µM (inactive)

**Q.** And the GI50 (OVCAR-5)?
**A.** > 100 µM (inactive)

**Q.** What about the GI50 (OVCAR-8) of the same molecule?
**A.** > 100 µM (inactive)

**Q.** And the GI50 (PC-3)?
**A.** > 100 µM (inactive)

**Q.** And the GI50 (RXF 393)?
**A.** 81.5 µM (inactive)

**Q.** And the GI50 (SF-268)?
**A.** > 100 µM (inactive)

**Q.** And the GI50 (SF-295)?
**A.** > 100 µM (inactive)

**Q.** And the GI50 (SF-539)?
**A.** > 100 µM (inactive)

**Q.** What about the GI50 (SK-MEL-28) of the same molecule?
**A.** > 100 µM (inactive)

**Q.** What about the GI50 (SK-MEL-2) of the same molecule?
**A.** > 100 µM (inactive)

**Q.** What about the GI50 (SK-MEL-5) of the same molecule?
**A.** 73.1 µM (inactive)

**Q.** What about the GI50 (SK-OV-3) of the same molecule?
**A.** > 100 µM (inactive)

**Q.** What about the GI50 (SN12C) of the same molecule?
**A.** > 100 µM (inactive)

**Q.** What about the GI50 (SNB-19) of the same molecule?
**A.** > 100 µM (inactive)

**Q.** And the GI50 (SNB-75)?
**A.** 36.4 µM (inactive)

**Q.** What about the GI50 (SR) of the same molecule?
**A.** > 100 µM (inactive)

**Q.** What about the GI50 (SW-620) of the same molecule?
**A.** > 100 µM (inactive)

**Q.** What about the GI50 (T47D) of the same molecule?
**A.** > 100 µM (inactive)

**Q.** What about the GI50 (TK-10) of the same molecule?
**A.** > 100 µM (inactive)

**Q.** What about the GI50 (U-251) of the same molecule?
**A.** > 100 µM (inactive)

**Q.** What about the GI50 (UACC-257) of the same molecule?
**A.** > 100 µM (inactive)

**Q.** And the GI50 (UACC-62)?
**A.** > 100 µM (inactive)

**Q.** And the GI50 (UO-31)?
**A.** 97.7 µM (inactive)
